Reference: patent publication US20230286970A1, “NOVEL OXADIAZOLE-BASED SELECTIVE HDAC6 INHIBITORS” (ITALFARMACO S.P.A., priority 2020, published 2023)

How the values were obtained:
[1] = target: recombinant human HDAC1 (Homo sapiens (Human), UniProt Q13547); test: Enzymatic screening, HDAC1 inhibition (fluorogenic FdL_G substrate); format: biochemical
Outline: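 Recombinant human HDAC1 inhibition was measured fluorometrically using the FLUOR DE LYS-Green (FdL_G) substrate. Compounds at 8 doses (1% DMSO final) in Tris-HCl pH 8 buffer with NaCl, Tween-20 and glycerol were preincubated in triplicate with enzyme and 1 mg/mL BSA, then given substrate. Developer I plus 2 μM TSA was added, and fluorescence read after 25 minutes in the dark.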

[2] = Stability to Phase I metabolism in rat S9 liver fraction; details: after 90 minutes, 37° C.
Protocol: (§1) Test compounds were incubated in rat and human liver S9 fraction at 37° C. up to 90 minutes in order to evaluate their stability to Phase I metabolism by hepatic enzymes. Each test compound was incubated at μM concentration (50 μM when the samples were analysed by UV/HPLC, 1 or 2 μM when the samples were analysed by LC-MS/MS) with S9 fraction (protein content 2 mg/m L) in 100 mM phosphate buffer (pH 7.4), 3.3 mM MgCl2 and 1.3 mM NADPH for 0, 10, 30, 60 and 90 minutes at 37° C. in a thermostated oscillating bath. The reaction was stopped placing samples on ice bath and adding acidified acetonitrile. After centrifugation (10 minutes at 14000 rpm) an aliquot of the supernatant was diluted with water, filtered with 0.45 μm regenerated cellulose syringe filters and injected in HPLC-UV or in LC-MS/MS. The percentage of the remaining amount at the various incubation times with respect to the initial amount were calculated.

[3] = Stability in rat plasma; details: after 4 hours, 37° C.
[4] = Stability in human plasma; details: after 4 hours, 37° C.
[5] = Stability to Phase I metabolism in human S9 liver fraction; details: after 90 minutes, 37° C.
Protocol: as §1

[6] = target: recombinant human HDAC6 (Homo sapiens (Human), UniProt Q9UBN7); test: Enzymatic screening, HDAC6 inhibition (fluorogenic FdL_G substrate); format: biochemical
Sequence of recombinant human HDAC6 (Q9UBN7 whole entry): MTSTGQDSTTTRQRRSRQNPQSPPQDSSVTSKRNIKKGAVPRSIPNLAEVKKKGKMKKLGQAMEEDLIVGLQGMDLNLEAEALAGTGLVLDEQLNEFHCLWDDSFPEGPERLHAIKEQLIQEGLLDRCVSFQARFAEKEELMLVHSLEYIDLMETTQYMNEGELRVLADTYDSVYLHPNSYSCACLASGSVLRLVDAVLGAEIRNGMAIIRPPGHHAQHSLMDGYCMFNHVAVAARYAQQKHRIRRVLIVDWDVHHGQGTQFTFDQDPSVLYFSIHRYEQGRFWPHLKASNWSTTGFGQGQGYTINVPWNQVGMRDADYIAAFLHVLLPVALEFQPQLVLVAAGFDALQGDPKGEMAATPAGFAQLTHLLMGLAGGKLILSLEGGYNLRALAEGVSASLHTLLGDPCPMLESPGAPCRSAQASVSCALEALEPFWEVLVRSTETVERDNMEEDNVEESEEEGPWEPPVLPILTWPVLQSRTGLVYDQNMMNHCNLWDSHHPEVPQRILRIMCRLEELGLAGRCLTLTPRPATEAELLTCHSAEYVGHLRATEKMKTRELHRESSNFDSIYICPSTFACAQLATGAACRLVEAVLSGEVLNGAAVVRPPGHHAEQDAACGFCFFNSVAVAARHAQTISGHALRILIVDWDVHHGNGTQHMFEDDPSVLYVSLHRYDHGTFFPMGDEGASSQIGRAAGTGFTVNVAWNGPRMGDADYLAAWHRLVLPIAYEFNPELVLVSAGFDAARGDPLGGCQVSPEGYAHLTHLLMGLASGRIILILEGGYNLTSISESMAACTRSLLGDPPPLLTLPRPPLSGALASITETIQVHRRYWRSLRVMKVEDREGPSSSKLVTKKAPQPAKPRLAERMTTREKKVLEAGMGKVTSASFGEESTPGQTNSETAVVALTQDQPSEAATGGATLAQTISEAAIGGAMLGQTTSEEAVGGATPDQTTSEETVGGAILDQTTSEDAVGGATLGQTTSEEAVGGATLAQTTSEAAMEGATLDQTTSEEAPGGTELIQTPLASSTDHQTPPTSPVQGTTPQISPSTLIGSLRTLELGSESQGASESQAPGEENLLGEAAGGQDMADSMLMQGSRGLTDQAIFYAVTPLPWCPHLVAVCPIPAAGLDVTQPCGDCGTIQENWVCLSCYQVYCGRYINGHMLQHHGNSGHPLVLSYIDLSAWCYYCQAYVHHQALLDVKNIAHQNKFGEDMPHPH
Outline: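 Enzyme was preincubated with compound (8 doses, triplicate, 1% DMSO) in 25 mM Tris-HCl pH 8, 130 mM NaCl, 0.05% Tween-20, 10% glycerol, with BSA. A FLUOR DE LYS-Green substrate was then added, and fluorescence was read after developer plus 2 μM TSA.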

Sequence of recombinant human HDAC1 (Q13547 whole entry): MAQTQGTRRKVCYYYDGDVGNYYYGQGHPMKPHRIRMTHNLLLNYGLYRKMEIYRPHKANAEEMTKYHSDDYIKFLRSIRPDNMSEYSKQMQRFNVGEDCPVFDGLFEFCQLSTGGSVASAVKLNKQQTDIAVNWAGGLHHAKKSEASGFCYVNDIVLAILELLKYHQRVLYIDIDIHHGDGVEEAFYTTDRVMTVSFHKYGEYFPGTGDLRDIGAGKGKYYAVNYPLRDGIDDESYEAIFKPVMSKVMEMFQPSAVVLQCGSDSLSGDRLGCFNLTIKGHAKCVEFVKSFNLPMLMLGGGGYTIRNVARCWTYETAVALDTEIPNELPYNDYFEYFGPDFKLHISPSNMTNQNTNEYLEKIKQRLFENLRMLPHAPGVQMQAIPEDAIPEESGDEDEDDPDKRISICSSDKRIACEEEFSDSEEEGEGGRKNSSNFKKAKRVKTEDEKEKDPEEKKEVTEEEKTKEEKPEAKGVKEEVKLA

SMILES	IC50 [1] [µM]	residual percentage in RAT S9 FRACTION [2] [%]	residual percentage in RAT PLASMA [3] [%]	residual percentage in HUMAN PLASMA [4] [%]	residual percentage in HUMAN S9 FRACTION [5] [%]	IC50 [6] [µM]
CC(c1ccc(-c2nnc(C(F)F)o2)cc1)n1cc(-c2ccc(N)nc2)nn1 (centres unmarked) [Compd. 117, 5-(1-(1-(4-(5-(difluoromethyl)-1,3,4-oxadiazol-2-yl)phenyl)ethyl)-1H-1,2,3-triazol-4-yl)pyridin-2-amine]	> 200	71	74	92	93	0.044
Nc1ncnc2cc(-c3cn(Cc4ccc(-c5nnc(C(F)F)o5)cc4)nn3)ccc12 [compound 84, 7-(1-(4-(5-(difluoromethyl)-1,3,4-oxadiazol-2-yl)benzyl)-1H-1,2,3-triazol-4-yl)quinazolin-4-amine]	> 200	62	60	80	85	0.033
FC(F)c1nnc(-c2ccc(Cn3nnc(-c4csc5ccccc45)n3)cc2)o1 [compound 207, 2-(4-((5-(benzo[b]thiophen-3-yl)-2H-tetrazol-2-yl)methyl)phenyl)-5-(difluoromethyl)-1,3,4-oxadiazole]	999	0	70	91	72	0.129
O=C1Nc2ccc(-c3cn(Cc4ccc(-c5nnc(C(F)F)o5)cn4)nn3)cc2NC12CCNCC2 [compound 36]	> 200	94	76	78	89	0.016
O=C(c1cccc(-c2nnn(Cc3ccc(-c4nnc(C(F)F)o4)cc3F)n2)c1)N1CCOCC1 [compound 93, (3-(2-(4-(5-(difluoromethyl)-1,3,4-oxadiazol-2-yl)-2-fluorobenzyl)-2H-tetrazol-5-yl)phenyl)(morpholino)methanone]	> 200	59	79	74	72	0.036
C[C@H](c1ccc(-c2nnc(C(F)F)o2)cc1)n1cc(-c2ccc(N)nc2)nn1 [compound 106, (R)-5-(1-(1-(4-(5-(difluoromethyl)-1,3,4-oxadiazol-2-yl)phenyl)ethyl)-1H-1,2,3-triazol-4-yl)pyridin-2-amine]		69	78	86	78	
O=C1NCc2ccc(-c3nnn(Cc4c(F)cc(-c5nnc(C(F)F)o5)cc4F)n3)cc21 [compound 57, 6-(2-(4-(5-(difluoromethyl)-1,3,4-oxadiazol-2-yl)-2,6-difluorobenzyl)-2H-tetrazol-5-yl)isoindolin-1-one]		86	68	62	70	
